The results in this text go back to EP0217372A2, “Polyoxygenated labdane derivatives, process for their preparation and their use as medicaments” (HOECHST AKTIENGESELLSCHAFT, priority 1985, dated 1987).

The test system of this assay is systolischer Blutdruck. Kind of assay: Blood pressure lowering in conscious spontaneously hypertensive rats (tail cuff). The class given is in vivo, SH-Ratten. The following applies: 25 mg/kg oral once daily for 5 days; difference from baseline, 2 hours after dosing. An excerpt: Blutdrucksenkung bei wachen hypertonen Ratten
Die blutdrucksenkende Wirkung wird bei wachen Ratten mit spontaner Hyperonie (SH) ermittelt. Eingesetzt werden dazu männliche SH-Ratten (250 - 300 g, 12 - 16 Wochen alt) des Wistar-Okamoto-Stammes aus eigener Züchtung. Vor der Blutdruckmessung werden die Ratten 10 Minuten bei 37'C in einer Wärmekammer aufgewärmt. Der systolische Blutdruck wird bei den wachen Ratten mittels Schwanzmanschetten-Methode gemessen, wobei ein piezoelektrischer Kristall zur Anzeige des Druckpulses, ein aneroides Manometer zur Druckmessung und ein Kardioskop (BPL-India) zur Anzeige des Verschwindens und/oder Auftretens des Druckpulses verwendet wird.
Die zu testenden erfindungsgemäßen Verbindungen werden unter Verwendung von stöchiometrischer 0,1 n HCl-Lösung bzw. die Salze direkt in Wasser gelöst und in dieser Form den SH-Ratten 5 Tage lang einmal täglich in einer Dosierung von 25 mg/kg oral verabreicht. Eine Gruppe dient als Kontrolle und erhält das Vehikel. Der systolische Blutdruck wird vor der ersten Verabreichung des Medikamentes und 2 Stunden danach registriert. Eine Senkung des systolischen Blutdruckes ist die Differenz zwischen dem Blutdruck nach der Behandlung und dem Ausgangswert.

The structures appear in SMILES notation.

Turning to `C=CC1(C)CC(=O)C2(O)C(C)(O1)C(O)C(OC(=O)CN1CCCCC1)C1C(C)(C)CCC(O)C12C` (centres unmarked), the “Senkung des systolischen Blutdruckes” value was determined as 14.

As to `C=CC1(C)CC(=O)C2(O)C(C)(O1)C(OC(=O)CN1CCCCC1)C(O)C1C(C)(C)CCC(O)C12C` (centres unmarked), the “Senkung des systolischen Blutdruckes” value turned out to be 35.
